For nine molecules, IC50 results are on record in ChEMBL document CHEMBL1146804, “Estrogen receptor ligands. Part 6: Synthesis and binding affinity of dihydrobenzodithiins” (Bioorg Med Chem Lett, 2004).

Broadly, the IC50 is the concentration that inhibits the measured activity by half. A lower IC50 goes with higher potency.

One test addresses T1, Estrogen receptor (Homo sapiens, UniProt P03372).
T1 sequence (P03372 whole entry): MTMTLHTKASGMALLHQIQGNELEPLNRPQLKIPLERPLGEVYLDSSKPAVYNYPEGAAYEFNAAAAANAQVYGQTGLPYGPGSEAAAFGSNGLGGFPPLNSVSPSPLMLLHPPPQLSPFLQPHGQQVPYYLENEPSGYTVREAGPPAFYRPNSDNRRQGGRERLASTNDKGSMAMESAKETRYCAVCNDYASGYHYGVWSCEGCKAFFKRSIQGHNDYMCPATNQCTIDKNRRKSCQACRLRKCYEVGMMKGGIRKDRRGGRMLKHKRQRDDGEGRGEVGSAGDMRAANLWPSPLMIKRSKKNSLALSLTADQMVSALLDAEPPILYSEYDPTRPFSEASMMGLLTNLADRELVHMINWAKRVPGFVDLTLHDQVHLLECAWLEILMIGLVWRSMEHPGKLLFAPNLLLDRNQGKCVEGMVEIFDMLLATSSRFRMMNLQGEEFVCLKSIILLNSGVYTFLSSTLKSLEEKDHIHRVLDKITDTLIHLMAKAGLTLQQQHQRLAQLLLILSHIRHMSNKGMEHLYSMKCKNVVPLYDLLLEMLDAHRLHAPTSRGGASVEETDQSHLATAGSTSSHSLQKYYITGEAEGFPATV

Test [1] deals with MCF7. The test is described as follows: Inhibition of MCF-7 cancer cell proliferation. Format: functional, cell-based. Particulars: Homo sapiens.
For a further test, the target named is Estrogen receptor beta (Homo sapiens, UniProt Q92731).
For test [2], the system named is MCF7. The test is described as follows: Inhibition of MCF-7 cancer cell proliferation; Average of 7 measurements. Format: functional, cell-based. Particulars: Homo sapiens.
The test system of test [3] is MCF7. As to the kind of experiment: Inhibition of MCF-7 cancer cell proliferation; Average of 5 measurements. Format: functional, cell-based. Particulars: Homo sapiens.
Test [4] concerns MCF7. As to the kind of experiment: Inhibition of MCF-7 cancer cell proliferation; Average of 2 measurements. Format: functional, cell-based. Particulars: Homo sapiens.

Structures are written as SMILES.

Estrogen receptor beta, sequence (Q92731 whole entry): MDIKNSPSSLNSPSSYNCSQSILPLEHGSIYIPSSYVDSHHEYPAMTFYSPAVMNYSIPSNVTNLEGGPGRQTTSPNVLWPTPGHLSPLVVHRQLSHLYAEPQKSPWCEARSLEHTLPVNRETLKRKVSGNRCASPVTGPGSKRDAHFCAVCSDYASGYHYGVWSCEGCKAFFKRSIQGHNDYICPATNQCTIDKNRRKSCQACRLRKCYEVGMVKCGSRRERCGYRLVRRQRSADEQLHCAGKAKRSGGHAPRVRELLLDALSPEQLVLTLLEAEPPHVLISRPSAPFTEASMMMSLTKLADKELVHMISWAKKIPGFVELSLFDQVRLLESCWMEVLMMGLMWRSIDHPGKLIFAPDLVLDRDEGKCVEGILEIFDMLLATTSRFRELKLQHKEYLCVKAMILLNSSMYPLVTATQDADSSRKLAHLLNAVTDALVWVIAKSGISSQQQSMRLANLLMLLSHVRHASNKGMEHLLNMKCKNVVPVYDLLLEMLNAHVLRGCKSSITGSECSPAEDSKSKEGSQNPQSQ
Description for Estrogen receptor beta: Binding affinity for human estrogen receptor beta

Consider `Oc1ccc([C@H]2Sc3cc(O)ccc3S[C@H]2c2ccc(OCCN3CCCC3)c(Br)c2)cc1`, for which the values for the 50% inhibitory concentration (IC50) against Estrogen receptor, with MCF7 [1] and against Estrogen receptor beta were 4 nM, 114 nM and 87 nM, respectively.

Regarding `Oc1ccc([C@H]2Sc3cc(O)ccc3S[C@H]2c2ccc(OCCN3CCCCC3)c(Br)c2)cc1`, the figures for the IC50 at Estrogen receptor, with MCF7 [1] and at Estrogen receptor beta were 5 nM, 67 nM and 111 nM, respectively.

In the case of `Oc1cccc([C@H]2Sc3cc(O)ccc3S[C@H]2c2ccc(OCCN3CCCCC3)c(Br)c2)c1`, the concentration for half-maximal inhibition (IC50) was found to be 4 nM against Estrogen receptor, 152 nM in the test with MCF7 [1] and 161 nM on Estrogen receptor beta.

For `Oc1ccc([C@H]2Sc3cc(O)ccc3S[C@H]2c2ccc(OCCN3CCCC3)cc2)cc1`, the IC50 was found to be 18 nM against Estrogen receptor, 123 nM in the test on MCF7 [1] and 266 nM at Estrogen receptor beta.

For `Oc1ccc([C@H]2Sc3cc(O)ccc3O[C@H]2c2ccc(OCCN3CCCCC3)cc2)cc1`, in the test with MCF7 [2], half-maximal inhibition (IC50) was put at 3 nM.

For `Oc1cccc([C@H]2Sc3cc(O)ccc3O[C@H]2c2ccc(OCCN3CCCC3)cc2)c1`, the results for the IC50 at Estrogen receptor, at Estrogen receptor beta and in the test with MCF7 [3] were 1 nM, 38 nM and 0.6 nM, respectively.

With `Oc1ccc([C@H]2Sc3cc(O)ccc3S[C@H]2c2ccc(OCCN3CCCCC3)cc2)cc1`, the IC50 amounted to 21 nM against Estrogen receptor, 112 nM in the test on MCF7 [1] and 326 nM against Estrogen receptor beta.

On to `Oc1cccc([C@H]2Sc3cc(O)ccc3S[C@H]2c2ccc(OCCN3CCCCC3)cc2)c1`, for which the concentration for half-maximal inhibition (IC50) against Estrogen receptor is 15 nM; in the test with MCF7 [1], 564 nM; against Estrogen receptor beta, 583 nM.

On to `Oc1cccc([C@H]2Sc3cc(O)ccc3O[C@H]2c2ccc(OCCN3CCCCC3)cc2)c1`, for which the figures for the 50% inhibitory concentration (IC50) at Estrogen receptor and in the test on MCF7 [4] were 4 nM and 0.4 nM, respectively.
